# Reference: BindingDB's records for doi:10.1021/cc9800374 (Smithkline Beecham Pharmaceuticals, 1999)
# Key:
# [1] = target: Cathepsin L (Homo sapiens, UniProt Q6LAF7); assay: Inhibition Assay; settings: pH 5.5
# Procedure: (§1) Inhibitors were assayed against human liver Cathepsin L and B. Inhibitors were also evaluated for inhibition against purified recombinant Cathepsin K.
# [2] = target: T1, Cathepsin K (Homo sapiens, UniProt P43235); assay: Inhibition Assay; settings: pH 5.5
# T1 sequence (P43235 whole entry): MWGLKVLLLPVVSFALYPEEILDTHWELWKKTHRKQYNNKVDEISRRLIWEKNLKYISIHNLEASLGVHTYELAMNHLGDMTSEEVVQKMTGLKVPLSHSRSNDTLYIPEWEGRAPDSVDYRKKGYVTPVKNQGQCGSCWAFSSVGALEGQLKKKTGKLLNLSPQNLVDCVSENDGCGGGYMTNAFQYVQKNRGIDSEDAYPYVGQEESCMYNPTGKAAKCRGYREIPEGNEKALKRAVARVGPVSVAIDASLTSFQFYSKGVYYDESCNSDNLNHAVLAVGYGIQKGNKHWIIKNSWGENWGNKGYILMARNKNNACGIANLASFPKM
# Procedure: as §1
# Chain of Cathepsin L (Q6LAF7 whole entry): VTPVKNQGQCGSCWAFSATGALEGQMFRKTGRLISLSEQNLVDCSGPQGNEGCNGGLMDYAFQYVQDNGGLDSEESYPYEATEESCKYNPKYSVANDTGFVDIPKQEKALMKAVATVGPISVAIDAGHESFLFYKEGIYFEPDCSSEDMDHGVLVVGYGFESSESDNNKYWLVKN
Ki [1],Ki [2],SMILES
> 1000 nM,200 nM,"CC(=O)N[C@@H](CC(C)C)C(=O)NC(C)C(=O)CNC(=O)Cc1cccc(-c2ccccn2)c1 (stereo partly specified) [Cathepsin Inhibitor, Column 1 Row 1]"
> 1000 nM,> 1000 nM,"CC(=O)N[C@@H](Cc1ccccc1)C(=O)NC(C)C(=O)CNC(=O)Cc1cccc(-c2ccccn2)c1 (stereo partly specified) [Cathepsin Inhibitor, Column 1 Row 2]"
> 1000 nM,> 1000 nM,"CC(=O)N[C@H](C(=O)NC(C)C(=O)CNC(=O)Cc1cccc(-c2ccccn2)c1)C(C)C (stereo partly specified) [Cathepsin Inhibitor, Column 1 Row 3]"
230 nM,8.4 nM,"CC(C)C[C@H](NC(=O)c1ccc(C(F)(F)F)cc1)C(=O)NC(C)C(=O)CNC(=O)Cc1cccc(-c2ccccn2)c1 (stereo partly specified) [Cathepsin Inhibitor, Column 2 Row 1]"
120 nM,90 nM,"CC(NC(=O)[C@H](Cc1ccccc1)NC(=O)c1ccc(C(F)(F)F)cc1)C(=O)CNC(=O)Cc1cccc(-c2ccccn2)c1 (stereo partly specified) [Cathepsin Inhibitor, Column 2 Row 2]"
> 1000 nM,430 nM,"CC(NC(=O)[C@@H](NC(=O)c1ccc(C(F)(F)F)cc1)C(C)C)C(=O)CNC(=O)Cc1cccc(-c2ccccn2)c1 (stereo partly specified) [Cathepsin Inhibitor, Column 2 Row 3]"
150 nM,7.4 nM,"COc1ccc(C(=O)N[C@@H](CC(C)C)C(=O)NC(C)C(=O)CNC(=O)Cc2cccc(-c3ccccn3)c2)cc1OC (stereo partly specified) [Cathepsin Inhibitor, Column 3 Row 1]"
53 nM,25 nM,"COc1ccc(C(=O)N[C@@H](Cc2ccccc2)C(=O)NC(C)C(=O)CNC(=O)Cc2cccc(-c3ccccn3)c2)cc1OC (stereo partly specified) [Cathepsin Inhibitor, Column 3 Row 2]"
> 1000 nM,> 1000 nM,"COc1ccc(C(=O)N[C@H](C(=O)NC(C)C(=O)CNC(=O)Cc2cccc(-c3ccccn3)c2)C(C)C)cc1OC (stereo partly specified) [Cathepsin Inhibitor, Column 3 Row 3]"
130 nM,18 nM,"CC(C)C[C@H](NC(=O)c1ccc2ncccc2c1)C(=O)NC(C)C(=O)CNC(=O)Cc1cccc(-c2ccccn2)c1 (stereo partly specified) [Cathepsin Inhibitor, Column 4 Row 1]"
36 nM,170 nM,"CC(NC(=O)[C@H](Cc1ccccc1)NC(=O)c1ccc2ncccc2c1)C(=O)CNC(=O)Cc1cccc(-c2ccccn2)c1 (stereo partly specified) [Cathepsin Inhibitor, Column 4 Row 2]"
> 1000 nM,> 1000 nM,"CC(NC(=O)[C@@H](NC(=O)c1ccc2ncccc2c1)C(C)C)C(=O)CNC(=O)Cc1cccc(-c2ccccn2)c1 (stereo partly specified) [Cathepsin Inhibitor, Column 4 Row 3]"
130 nM,1.7 nM,"CC(C)C[C@H](NC(=O)c1ccc2ccccc2n1)C(=O)NC(C)C(=O)CNC(=O)Cc1cccc(-c2ccccn2)c1 (stereo partly specified) [Cathepsin Inhibitor, Column 5 Row 1]"
110 nM,170 nM,"CC(NC(=O)[C@H](Cc1ccccc1)NC(=O)c1ccc2ccccc2n1)C(=O)CNC(=O)Cc1cccc(-c2ccccn2)c1 (stereo partly specified) [Cathepsin Inhibitor, Column 5 Row 2]"
> 1000 nM,830 nM,"CC(NC(=O)[C@@H](NC(=O)c1ccc2ccccc2n1)C(C)C)C(=O)CNC(=O)Cc1cccc(-c2ccccn2)c1 (stereo partly specified) [Cathepsin Inhibitor, Column 5 Row 3]"
90 nM,1.3 nM,"CC(C)C[C@H](NC(=O)c1cc2ccccc2s1)C(=O)NC(C)C(=O)CNC(=O)Cc1cccc(-c2ccccn2)c1 (stereo partly specified) [Cathepsin Inhibitor, Column 6 Row 1]"
18 nM,16 nM,"CC(NC(=O)[C@H](Cc1ccccc1)NC(=O)c1cc2ccccc2s1)C(=O)CNC(=O)Cc1cccc(-c2ccccn2)c1 (stereo partly specified) [Cathepsin Inhibitor, Column 6 Row 2]"
> 1000 nM,300 nM,"CC(NC(=O)[C@@H](NC(=O)c1cc2ccccc2s1)C(C)C)C(=O)CNC(=O)Cc1cccc(-c2ccccn2)c1 (stereo partly specified) [Cathepsin Inhibitor, Column 6 Row 3]"
